# What was measured:
# [1] = Partition coefficient; Kp = concentration of test compound in n-octanol/concentration of the test compound in phosphate buffer (pH 7.4); type: physicochemical
# [2] = species on record: Cavia porcellus; assay: Calcium channel antagonist activity against carbachol-induced contractile response in guinea pig ileal longitudinal smooth muscle; type: functional
# [3] = test system: Mus musculus; assay: Anticonvulsant activity in the subcutaneous metrazole (scMet) screen test expressed as the number of animals protected the number of animals tested; scMet at 100 mg/kg after 0.5 hrs; (0/1); type: functional
# [4] = test system: Mus musculus; assay: Anticonvulsant activity in the subcutaneous metrazole (scMet) screen test expressed as the number of animals protected the number of animals tested; scMet at 100 mg/kg after 4 hrs; (0/1); type: functional
# [5] = test system: Mus musculus; assay: Anticonvulsant activity in the subcutaneous metrazole (scMet) screen test expressed as the number of animals protected the number of animals tested; scMet at 300 mg/kg after 0.5 hrs; (0/1); type: functional
# [6] = test system: Mus musculus; assay: Anticonvulsant activity in the subcutaneous metrazole (scMet) screen test expressed as the number of animals protected the number of animals tested; scMet at 300 mg/kg after 4 hrs; (0/1); type: functional
# [7] = test system: Mus musculus; assay: Anticonvulsant activity in the maximal electroshock (MES) screen test expressed as the number of animals protected the number of animals tested; MES at 100 mg/kg after 0.5 hrs; (0/3); type: functional
# [8] = test system: Mus musculus; assay: Anticonvulsant activity in the maximal electroshock (MES) screen test expressed as the number of animals protected the number of animals tested; MES at 100 mg/kg after 4 hrs; (1/3); type: functional
# [9] = test system: Mus musculus; assay: Anticonvulsant activity in the maximal electroshock (MES) screen test expressed as the number of animals protected the number of animals tested; MES at 300 mg/kg after 0.5 hrs; (0/1); type: functional
# [10] = test system: Mus musculus; assay: Anticonvulsant activity in the maximal electroshock (MES) screen test expressed as the number of animals protected the number of animals tested; MES at 300 mg/kg after 4 hrs; (1/1); type: functional
# [11] = test system: Mus musculus; assay: Anticonvulsant activity in the subcutaneous metrazole (scMet) screen test expressed as the number of animals protected to the number of animals tested; scMet at 100 mg/kg after 0.5 hrs; (1/1); type: functional
# [12] = test system: Mus musculus; assay: Anticonvulsant activity in the subcutaneous metrazole (scMet) screen test expressed as the number of animals protected to the number of animals tested; scMet at 100 mg/kg after 4 hrs; (0/1); type: functional
# [13] = test system: Mus musculus; assay: Anticonvulsant activity in the maximal electroshock (MES) screen test expressed as the number of animals protected to the number of animals tested; MES at 100 mg/kg after 0.5 hrs; (2/2); type: functional
# [14] = test system: Mus musculus; assay: Anticonvulsant activity in the subcutaneous metrazole (scMet) screen test expressed as the number of animals protected/ the number of animals tested; scMet at 300 mg/kg after 0.5 hrs; (0/1); type: functional
# [15] = test system: Mus musculus; assay: Anticonvulsant activity in the maximal electroshock (MES) screen test expressed as the number of animals protected / the number of animals tested; MES at 100 mg/kg after 0.5 hrs; (2/3); type: functional
# [16] = test system: Mus musculus; assay: Anticonvulsant activity in the maximal electroshock (MES) screen test expressed as the number of animals protected / the number of animals tested; MES at 100 mg/kg after 4 hrs; (2/3); type: functional
# [17] = test system: Mus musculus; assay: Anticonvulsant activity in the maximal electroshock (MES) screen test expressed as the number of animals protected / the number of animals tested; MES at 300 mg/kg after 0.5 hrs; (1/1); type: functional
# [18] = test system: Mus musculus; assay: Anticonvulsant activity in the subcutaneous metrazole (scMet) screen test expressed as the number of animals protected / the number of animals tested; scMet at 100 mg/kg after 0.5 hrs; (0/1); type: functional
# [19] = test system: Mus musculus; assay: Anticonvulsant activity in the subcutaneous metrazole (scMet) screen test expressed as the number of animals protected / the number of animals tested; scMet at 100 mg/kg after 4 hrs; (0/1); type: functional
# [20] = test system: Mus musculus; assay: Anticonvulsant activity in the subcutaneous metrazole (scMet) screen test expressed as the number of animals protected to the number of animals tested; scMet at 300 mg/kg; (0/1); type: functional
# [21] = test system: Mus musculus; assay: Anticonvulsant activity in the subcutaneous metrazole (scMet) screen test expressed as the number of animals protected to the number of animals tested; scMet at 100 mg/kg after 0.5 hrs; (0/1); type: functional
# [22] = test system: Mus musculus; assay: Anticonvulsant activity in the maximal electroshock (MES) screen test expressed as the number of animals protected to the number of animals tested; MES at 300 mg/kg after 4 hrs; (1/1); type: functional
# [23] = test system: Mus musculus; assay: Anticonvulsant activity in the maximal electroshock (MES) screen test expressed as the number of animals protected to the number of animals tested; MES at 100 mg/kg after 0.5 hrs; (0/3); type: functional
# [24] = test system: Mus musculus; assay: Anticonvulsant activity in the maximal electroshock (MES) screen test expressed as the number of animals protected to the number of animals tested; MES at 100 mg/kg after 4 hrs; (1/3); type: functional
# [25] = test system: Mus musculus; assay: Anticonvulsant activity in the maximal electroshock (MES) screen test expressed as the number of animals protected to the number of animals tested; MES at 300 mg/kg after 0.5 hrs; (0/1); type: functional
compound,measurement,setting,value
CO/C(O)=C1\C(C)=NC(C)=C(C(=O)OCCOC(=O)C2=CN(C)C=CC2)C1c1cccc(Cl)c1Cl (stereo unspecified),Kp,[1],366
same,IC50,[2],31 nM
same,No. of animals protected / no animals tested,[3],0
same,No. of animals protected / no animals tested,[4],0
same,No. of animals protected / no animals tested,[5],0
same,No. of animals protected / no animals tested,[6],0
same,No. of animals protected / no animals tested,[7],0
same,No. of animals protected / no animals tested,[8],1
same,No. of animals protected / no animals tested,[9],0
same,No. of animals protected / no animals tested,[10],1
CO/C(O)=C1\C(C)=NC(C)=C(C(=O)OCCO)C1c1cccc(Cl)c1Cl (stereo unspecified),Kp,[1],236
same,IC50,[2],30.4 nM
same,No. of animals protected / no animals tested,[11],1
same,No. of animals protected / no animals tested,[12],0
same,No. of animals protected / no animals tested,[13],2
CCOC(=O)C1=C(C)NC(C)=C(C(=O)OC)C1c1cccc(Cl)c1Cl (stereo unspecified) [FELODIPINE],Kp,[1],442
same,No. of animals protected / no animals tested,[14],0
same,No. of animals protected / no animals tested,[15],2
same,No. of animals protected / no animals tested,[16],2
same,No. of animals protected / no animals tested,[17],1
same,No. of animals protected / no animals tested,[18],0
same,No. of animals protected / no animals tested,[19],0
COCCOC(=O)C1=C(C)NC(C)=C(C(=O)OC(C)C)C1c1cccc([N+](=O)[O-])c1 (stereo unspecified) [NIMODIPINE],Kp,[1],187
same,IC50,[2],14.9 nM
same,No. of animals protected / no animals tested,[20],0 300mg kg-1
same,No. of animals protected / no animals tested,[21],0 100mg kg-1
same,No. of animals protected / no animals tested,[12],0 100mg kg-1
same,No. of animals protected / no animals tested,[22],1 300mg kg-1
same,No. of animals protected / no animals tested,[23],0 100mg kg-1
same,No. of animals protected / no animals tested,[24],1 100mg kg-1
same,No. of animals protected / no animals tested,[25],0 300mg kg-1
